# In patent US6699877B2 (Gruenenthal GmbH, priority 2000, dated 2004):
# Experiments:
# [1] = tested on: formalin-induced nociception; assay: Formalin test, rat (second/late phase); assay type: in vivo; conditions: 21.5 mg/kg, late phase
# Experimental: Experiments to determine the antinociceptive activity of the compounds according to the invention of Formula I were carried out in the formalin test on male rats (Sprague-Dawley, 150-170 g).
# In the formalin test, the first (early) phase (0-15 min after formalin injection) was distinguished from the second (late) phase (15-60 min after formalin injection) (D. Dubuisson, S. G. Dennis, Pain 4, 161-174 (1977)). The early phase, as a direct reaction to the formalin injection, represents a model for acute pain while the late phase is considered as a model for persistent (chronic) pain (T. J. Coderre, J. Katz, A. L. Vaccarino, R. Melzack, Pain, Vol. 52, p. 259,1993).
# The compounds according to the invention were investigated in the second phase of the formalin test to obtain information about the effects of substances in chronic/inflammatory pain.
# A nociceptive reaction was induced in freely moving experimental animals by a single subcutaneous formalin injection (50 μl, 5%) into the dorsal side of the back right paw, the nociceptive reaction being portrayed by the following behavioral parameters: lifting and holding the respective paw (Score 1), shaking and twitching (Score 2), licking and biting (Score 3). The different behavioral patterns triggered by the formalin injection were recorded continuously by observing the animals in the late phase of the formalin test and were weighted differently in an evaluation. Normal behavior in which the animal loads all four paws uniformly was recorded as score 0. The moment of administration prior to the formalin injection was selected according to the method of administration of the compounds according to the invention (intraperitoneal: 15 min, intravenous: 5 min). The described behavioral patterns (Score 1 to 3) in the animals are reduced and possibly even eliminated after injection of substances which have an antinociceptive effect in the formalin test. A comparisom was made with control animals which had received vehicles (solvents) prior to formalin administration. The nociceptive behavior was calculated as a so-called pain rate (PR). The various behavioral parameters received a different weighting (Factor 0, 1, 2, 3). Calculation took place at partial intervals of 3 min according to the following formula:
# Substance and vehicle groups include n=10 animals in each case. The effect of the substance was determined as a percentage change versus control on the basis of the PR calculations. The ED50 calculations were made by regression analysis.
# [2] = biological target: T1, glycine binding site of the NMDA receptor channel (Rattus norvegicus, UniProt P35439); assay: Receptor binding, displacement of (3H)-MDL 105.519 on rat cerebral membrane homogenates; conditions: 10 μmol/l test substance, 1 nmol/l (3H)-MDL 105.519; for inhibition at 10 µM: read-out: Displacement (%, 10 μmol/l) of radioactive ligand from specific binding
# T1 construct: from tissue; host or cells: rat brain cortex and hippocampus membrane homogenate
# Experimental: Receptor Binding (Glycine Binding Site of the NMDA Receptor Channel)
# Experiments to determine the affinity of the compounds according to the invention of Formula I to the glycine binding site of the NMDA receptor channel were carried out on cerebral membrane homogenates (homogenate of Cortex- and Hippocampus-Areal from the brain of male rats, Wistar strain) (B. M. Baron, B. W. Siegel, B. L. Harrison, R. S. Gross, C. and P. Towers, Journal of Pharmacology and Experimental Therapeutics, Vol. 279, p. 62, 1996).
# For this purpose, Cortex and Hippocampus from freshly removed rats' brains were dissected, homogenized in 5 mmol/l TRIS-acetate buffer, 0.32 mol/l sacharose pH 7.4 (10 ml/g fresh weight) with a Potter homogenizer (made by Braun/Melsungen, 10 piston strokes at 500 rpm) while cooling with ice and subsequently centrifuged for 10 minutes at 1,000 g and 4° C. The first supernatant material was collected and the sediment homogenized again with […] TRIS-acetate buffer, 0.32 mol/l safcharose pH 7.4 (5 ml/g original fresh weight) using the Potter homogenizer (10 piston strokes at 500 rpm) while cooling with ice and centrifuged for 10 minutes at 1,000 g and 4° C. The resultant supernatant material was combined with the supernatant material from the first centrifugation and centrifuged at 17,000 g for 20 minutes at 4° C. The supernatant material after this centrifugation was discarded, the membrane sediment taken up with 5 mmol/l TRIS-acetate buffer pH 8.0 (20 ml/g original fresh weight) and homogenized with 10 piston strokes at 500 rpm.
# The membrane homogenate was then incubated for 1 hour at 4° C. and centrifuged for 30 minutes at 50,000 g and 4° C. The supernatant material was discarded and the centrifuge tube with the membrane sediment sealed with parafilm and frozen for 24 hours at −20° C. The membrane sediment was thawed on the following day, taken up with ice-cold 5 mmol/l TRIS-acetate buffer, 0.1% saponin (w/v) pH 7.0 (10 ml/g original fresh weight), homogenized with 10 piston strokes at 500 rpm and subsequently centrifuged for 20 minutes at 50,00 g and 4° C. The resultant supernatant material was discarded, the sediment taken up in a small volume with 5 mmol/l TRIS-acetate buffer pH 7.0 (about 2 ml/g original fresh weight) and homogenized again with 10 piston strokes at 500 rpm. After determining the protein content, the membrane homogenate was adjusted to a protein concentration of 10 mg protein/ml using 5 mmol/l TRIS-acetate buffer pH 7.0 and frozen in aliquots for testing.
# For the receptor binding test, aliquots were thawed, diluted 1:10 with 5 mmol/l TRIS-acetate buffer pH 7.0, homogenized with 10 piston strokes at 500 rpm using the potter homogenizer (10 piston strokes at 500 rpm) while cooling with ice and centrifuged for 60 minutes at 55,000 g at 4° C. The supernatant material was decanted, the membrane sediment adjusted to a protein concentration of 1 mg/ml with ice-cold 50 mmol/l TRIS-acetate buffer pH 7.0, homogenized again with 10 piston strokes at 500 rpm and kept in suspension in the ice bath while stirring on a magnetic stirrer. 100 μl of this membrane homogenate per 1 ml of feedstock was used in each case in the receptor binding test (0.1 mg protein/ml in the final batch).
# In the binding test, 50 mmol/l TRIS-acetate buffer pH 7.0 was used as buffer and 1 nmol/l (^3H)-MDL 105.519 (B. M. Baron et al 1996) was used as radioactive ligand. The proportion of unspecific binding was determined in the presence of 1 mmol/l glycine.
# In further batches, the compounds according to the invention were added in concentration series and the displacement of the radioactive ligand from its specific binding to the glycine binding site of the NMDA receptor channel determined. The respective triple batches were incubated for 120 minutes at 4° C. and then harvested to determine the radioactive ligands bound to the membrane homogenate by filtration through glass fiber filter mats (GF/B). […]
inhibition at 10 µM [2],SMILES,also measured
,"CCOC(=O)C1Nc2cc(Cl)cc(Cl)c2C2C=CCC12 (centres unmarked) [Example 1, 7,9-dichloro-3a,4,5,9b-tetrahydro-3H-cyclopenta[c]quinoline-4-carboxylic Acid Ethyl Ester]",% inhibition of formalin-induced nociception ([1]; i.p.): 88.3%
,"O=C(O)C1Nc2ccc(Cl)cc2C2C=CCC12 (centres unmarked) [Example 4, 8-chloro-3a-4,5,9b-tetrahydro-3H-cyclo-penta[c]quinoline-4-carboxylic Acid]",% inhibition of formalin-induced nociception ([1]; i.v.): 67.1%
43%,"CCOC(=O)C1CC(c2ccccc2F)c2c(Cl)cc(Cl)cc2N1 (centres unmarked) [Example 26, 5,7-dichloro-4-(2-fluorophenyl)-1,2,3,4-tetrahydroquinoline-2-carboxylic Acid Ethyl Ester]",% inhibition of formalin-induced nociception ([1]; i.p.): 82.6%
40%,"CCOC(=O)C1CC(c2ccccc2Cl)c2c(Cl)cc(Cl)cc2N1 (centres unmarked) [Example 33, 5,7-dichloro-4-(2-chlorophenyl)-1,2,3,4-tetrahydroquinoline-2-carboxylic Acid Ethyl Ester]",% inhibition of formalin-induced nociception ([1]; i.p.): 69.0%
32%,"CCOC(=O)C1CC(c2cccc(Cl)c2)c2c(Cl)cc(Cl)cc2N1 (centres unmarked) [Example 34, 5,7-dichloro-4-(3-chlorophenyl)-1,2,3,4-tetrahydroquinoline-2-carboxylic Acid Ethyl Ester]",% inhibition of formalin-induced nociception ([1]; i.p.): 53.1%
32%,"CCOC(=O)C1CC(c2ccc(Cl)cc2)c2c(Cl)cc(Cl)cc2N1 (centres unmarked) [Example 35, 5,7-dichloro-4-(4-chlorophenyl)-1,2,3,4-tetrahydroquinoline-2-carboxylic Acid Ethyl Ester]",% inhibition of formalin-induced nociception ([1]; i.p.): 21.9%
37%,"O=C(O)C1CC(c2ccc(Cl)cc2)c2cc(Cl)c(C(F)(F)F)cc2N1 (centres unmarked) [Example 87, 6-chloro-4-(4-chlorophenyl)-7-trifluoromethyl-1,2,3,4-tetrahydroquinoline-2-carboxylic acid]",
34%,"CCOC(=O)C1Nc2ccc(C#N)cc2C2c3ccccc3CC12 (centres unmarked) [Example 88, 2-cyano-5,6a,7,11b-tetrahydro-6H-indeno[2,1-c]quinoline-6-carboxylic acid ethyl ester]",
30%,"N#Cc1ccc2c(c1)C(c1ccccc1Cl)CC(C(=O)O)N2 (centres unmarked) [Example 89, 4-(2-chlorophenyl)-6-cyano-1,2,3,4-tetrahydroquinoline-2-carboxylic acid]",
46%,"CCOC(=O)C1Nc2c(Cl)cc(Br)cc2C(c2ccccc2)C1C (centres unmarked) [Example 90, 6-bromo-8-chloro-3-methyl-4-phenyl-1,2,3,4-tetrahydroquinoline-2-carboxylic acid ethyl ester]",
46%,"Cc1ccc(C2CC(C(=O)O)Nc3c(Cl)cc(Br)cc32)c(C)c1 (centres unmarked) [Example 91, 6-bromo-8-chloro-4-(2,4-dimethylphenyl)-1,2,3,4-tetrahydroquinoline-2-carboxylic acid]",
62%,"O=C(O)C1CC(c2ccccc2Br)c2cc(Br)cc(Cl)c2N1 (centres unmarked) [Example 92, 6-bromo-4-(2-bromophenyl)-8-chloro-1,2,3,4-tetrahydroquinoline-2-carboxylic acid]",
44%,"COc1cc(C2c3cc(SC)ccc3NC(C(=O)O)C2C)ccc1O (centres unmarked) [Example 93, 4-(4-hydroxy-3-methoxyphenyl)-3-methyl-6-methylsulphanyl-1,2,3,4-tetrahydroquinoline-2-carboxylic acid]",
55%,"COc1ccc(C2c3cc(C#N)ccc3NC(C(=O)O)C2c2ccc(OC)cc2)cc1 (centres unmarked) [Example 94, 6-cyano-3,4-bis-(4-methoxyphenyl)-1,2,3,4-tetrahydroquinoline-2-carboxylic acid]",
33%,"CCOC(=O)C1Nc2c(Cl)cc(F)cc2C(c2ccc(OC)cc2)C1c1ccc(OC)cc1 (centres unmarked) [Example 95, 8-chloro-6-fluoro-3,4-bis-(4-methoxyphenyl)-1,2,3,4-tetrahydroquinoline-2-carboxylic acid ethyl ester]",
29%,"CCOC(=O)C1CC(c2ccc(OCc3ccccc3)c(OC)c2)c2cc(C(C)(C)C)ccc2N1 (centres unmarked) [Example 96, 4-(4-benzyloxy-3-methoxyphenyl)-6-tert-butyl-1,2,3,4-tetrahydroquinoline-2-carboxylic acid ethyl ester]",
39%,"O=C(O)C1CC(c2ccc(Cl)cc2)c2c(Cl)cc(Cl)cc2N1 (centres unmarked) [Example 97, 5,7-dichloro-4-(4-chlorophenyl)-1,2,3,4-tetrahydroquinoline-2-carboxylic acid]",
51%,"O=C(O)C1CC(c2cccc(Cl)c2)c2c(Cl)cc(Cl)cc2N1 (centres unmarked) [Example 98, 5,7-dichloro-4-(3-chlorophenyl)-1,2,3,4-tetrahydroquinoline-2-carboxylic acid]",
,"O=C(O)C1CC(c2ccc(Cl)cc2)c2c(Cl)cc(Cl)cc2N1 (centres unmarked) [Example 99, 5,7-dichloro-4-(4-chlorophenyl)-1,2,3,4-tetrahydroquinoline-2-carboxylic acid]","Displacement (%, 10 μmol/l) of radioactive ligand from specific binding [2]: 43%"
80%,"O=C(O)C1Nc2cc(Cl)cc(Cl)c2C2c3ccccc3CCC12 (centres unmarked) [Example 100, 1,3-dichloro-5,6,6a,7,8,12b-hexahydrobenzo[k]phenanthridine-6-carboxylic acid]",
98%,"O=C(O)C1Nc2cc(Cl)cc(Cl)c2C2c3ccccc3CC12 (centres unmarked) [Example 101, 1,3-dichloro-5,6a,7,11b-tetrahydro-6H-indeno[2,1-c]quinoline-6-carboxylic acid]",
61%,"Cc1cc(C)cc(C2CC(C(=O)O)Nc3cc(Cl)cc(Cl)c32)c1 (centres unmarked) [Example 102, 5,7-dichloro-4-(3,5-dimethyl-phenyl)-1,2,3,4-tetrahydroquinoline-2-carboxylic acid]",
